From patent US20230183207A1 (priority 2020, published 2023)

Experiments:
SARS-CoV-2 = type: cell-based
[1] = test system: Vero-E6 and TMPRSS2-over-expressing Vero-E6 cells

Compound	block of cytopathic effect of SARS-CoV-2 (FIG. 2) (SARS-CoV-2)	toxicity [1]
C=CCn1ccc2c(C(=O)Oc3cncc(Cl)c3)cccc21 [GRL-0820S]	significantly block the cytopathic effect	
O=C(Oc1cncc(Cl)c1)c1cccc2[nH]ccc12 [GRL-0920S]	significantly block the cytopathic effect	without significant toxicity
